Reference: the supplement of paper PMC11208160

Assay: recombinant barcode read abundance after kanamycin selection (control-corrected) (log10(CPM+1)); higher = more efficient recombination; sequences stand for … in AGTGCAGAGAAAATCGGCCAGTTTTCTCTGCCTGCAGTCCGCATGCCGT…AGATTTATGCAGCGGACTGCCTTTCTCCCAAAGTGATAAACCGGACAGTATCATGGACCGGTTTTCCCGGTAATCCGTATTTGCAAGGTTGGTTTCACT; site = the 11-nt target
Procedure, shortened: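 A promoter, a target, a barcode and the first 104 bridge RNA bases under J23119 made up each oligo. Oligos were Gibson-cloned into a vector bearing the other 73 bp and a T7-inducible recombinase, then co-electroporated into E. coli with a donor plasmid and plated in duplicate on chloramphenicol/ampicillin LB agar (control) or chloramphenicol/ampicillin/kanamycin with 0.1 mM IPTG. Recombination efficiency is the averaged, control-corrected counts per million of recombinant-junction barcodes. Reported values are log10(CPM+1).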
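Note: IS621 recombinase and bridge RNA in Escherichia coli cells.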

| Sequence | recombinant barcode read abundance (log10) |
| --- | --- |
| CTCCTATCTTGGGTTCTAACCTGTTGCCT (site CTCCTATCTAG) | 0.848 |
| CTCGAATCTTGGGTTCTAACCTGTTGCTA (site CTCGAACCTCA) | 0.175 |
| CTCGAATCTTGGGTTCTAACCTGTTGCTA (site CTCGAATCTTA) | 1.17 |
| CTCGACCCTTGGGTTCTAACCTGTTGCCT (site CTCGACCCTAG) | 1.7 |
| CTCGACCCTTGGGTTCTAACCTGTTGCCT (site CTGGATCCTAG) | 0.0491 |
| CTCGATACTTGGGTTCTAACCTGTTGCTT (site CTCGATACTAA) | 0.684 |
| CTCGATACTTGGGTTCTAACCTGTTGCTT (site CTCGCTACTAA) | 0.096 |
| CTCGCCACTTGGGTTCTAACCTGTTGCCT (site CTCGCCACTAG) | 0.186 |
| CTCGCCACTTGGGTTCTAACCTGTTGCCT (site GAGTTGTCTCC) | 0.0691 |
| CTCGGAGCTTGGGTTCTAACCTGTTGCCG (site CTCGGAGCTCG) | 0.596 |
| CTCGGAGCTTGGGTTCTAACCTGTTGCCG (site CTCGGATCTTG) | 0.47 |
| CTCGGATCTTGGGTTCTAACCTGTTGCCA (site CTCGGAGCTCG) | 0.167 |
| CTCGGATCTTGGGTTCTAACCTGTTGCCA (site CTCGGATCTTG) | 0.0484 |
| CTCGGTACTTGGGTTCTAACCTGTTGCCA (site CTCGGTACTTG) | 0.489 |
| CTCGGTACTTGGGTTCTAACCTGTTGCCA (site CTCGGTTCTAG) | 0.0612 |
| CTCGGTGCTTGGGTTCTAACCTGTTGCCT (site CACGGTCCTAG) | 0.118 |
| CTCGGTGCTTGGGTTCTAACCTGTTGCCT (site CTCGGTGCTAG) | 1.15 |
| CTCGTGTCTTGGGTTCTAACCTGTTGCAG (site CTCGTGTCTCT) | 1.95 |
| CTCGTGTCTTGGGTTCTAACCTGTTGCAG (site CTCTTGTCTCA) | 0.0182 |
| CTCGTGTCTTGGGTTCTAACCTGTTGCAT (site AGAACTACTTG) | 0.00883 |
| CTCGTGTCTTGGGTTCTAACCTGTTGCAT (site CTCGTGTCTAT) | 2.88 |
| CTCTACACTTGGGTTCTAACCTGTTGCCA (site CTCTAAACTTG) | 0.0347 |

| Sequence | recombinant barcode read abundance (log10) |
| --- | --- |
| CTCTACACTTGGGTTCTAACCTGTTGCCA (site CTCTACACTTG) | 0.879 |
| CTCTACACTTGGGTTCTAACCTGTTGCCA (site CTCTAGACTTG) | 0.161 |
| CTCTACACTTGGGTTCTAACCTGTTGCCA (site CTCTATACTTG) | 0.0697 |
| CTCTACCCTTGGGTTCTAACCTGTTGCAG (site AGAGCGACTTA) | 0.0772 |
| CTCTACCCTTGGGTTCTAACCTGTTGCAG (site CTCTACCCTCT) | 1.9 |
| CTCTACTCTTGGGTTCTAACCTGTTGCGT (site CTCTACTCTAC) | 0.529 |
| CTCTACTCTTGGGTTCTAACCTGTTGCGT (site TGACCTACTTG) | 0.0348 |
| CTCTAGACTTGGGTTCTAACCTGTTGCCA (site CTCTAAACTTG) | 0.193 |
| CTCTAGACTTGGGTTCTAACCTGTTGCCA (site CTCTACACTTG) | 0.0305 |
| CTCTAGACTTGGGTTCTAACCTGTTGCCA (site CTCTAGACTTG) | 0.69 |
| CTCTAGACTTGGGTTCTAACCTGTTGCCA (site CTCTATACTTG) | 0.0325 |
| CTCTAGCCTTGGGTTCTAACCTGTTGCGT (site CTCTAACCTAC) | 1.38 |
| CTCTAGCCTTGGGTTCTAACCTGTTGCGT (site CTCTACCCTAC) | 0.178 |
| CTCTAGCCTTGGGTTCTAACCTGTTGCGT (site CTCTAGCCTAC) | 1.25 |
| CTCTAGCCTTGGGTTCTAACCTGTTGCGT (site CTCTATCCTAC) | 0.0754 |
| CTCTAGTCTTGGGTTCTAACCTGTTGCCT (site CTCTAGTCTAA) | 0.0156 |
| CTCTAGTCTTGGGTTCTAACCTGTTGCCT (site CTCTAGTCTAC) | 0.792 |
| CTCTAGTCTTGGGTTCTAACCTGTTGCCT (site CTCTAGTCTAG) | 0.154 |
| CTCTAGTCTTGGGTTCTAACCTGTTGCCT (site CTCTAGTCTAT) | 0.526 |
| CTCTATACTTGGGTTCTAACCTGTTGCCA (site CTCTAAACTTG) | 0.0863 |
| CTCTATACTTGGGTTCTAACCTGTTGCCA (site CTCTACACTTG) | 0.102 |
